Measured values: patent publication US20230015647A1, “INHIBITORS OF HISTONE DEMETHYLASES (PFI-63 AND PFI-90) FOR THE TREATMENT OF CANCER AND FOR THE INHIBITION OF HISTONE DEMETHYLASE IN CELLS” (The United States of America,as represented by the …, priority 2019, published 2023)
“Also recorded” adds a separate entry of the source.

Key:
[1] = tested on: truncated KDM3B catalytic domain; assay: WaterLOGSY NMR binding assay; conditions: 100 μM
Description: (§1) A WaterLOGSY assay and a Carr-Purcell Meiboom-Gill (CPMG) based assay were used to investigate protein-ligand binding affinity between PFI-90 and a truncated KDM3B catalytic domain.
In traditional proton NMR experiments, a series of peaks are generated that represent the structure of a solitary small molecule, whereas the WaterLOGSY experiment examines the behavior of a small molecule's peaks in the presence of a potential target. This is achieved by observing differences in interaction between a small molecule interacting with water co-occupying a binding cleft on a target as compared to water dispersed freely in solution. The experiment then depicts the ratio of bound to unbound small molecule by phasing proton NMR spectra on the X-axis in opposing directions depending on the magnitude of that ratio (i.e., increasing ratios above 1 will phase positively, decreasing ratios below 1 will phase negatively).

[2] = tested on: truncated KDM3B catalytic domain; assay: CPMG relaxation editing NMR binding assay; conditions: 100 μM
Description: as §1
CPMG (Carr-Purcell-Meiboom-Gill) Relaxation Editing Proton NMR is another drug-discovery NMR experiment that may be used in conjunction with WaterLOGSY to orthogonally validate the presence of a reversible binding interaction of mild to high affinity from a small molecule to a label-free target. In contrast to WaterLOGSY, all peaks are phased above the X-axis. Instead, this experiment filters out the proportion of peak height that is contributed from the quantity of small molecule bound to a target of high molecular weight (e.g., a protein). Once the attenuation of peak height is equivalent to a 20% reduction, the compound is said to bind, with an increasing ratio of bound to unbound small molecules manifesting in increasing signal attenuation.

[3] = tested on: PAX3-FOXO1 fusion transcription factor; assay: RH4 ALK-Luc luciferase reporter assay (PAX3-FOXO1 super enhancer activity); type: cell-based, human; conditions: RH4 ALK-Luc reporter
Procedure: The screen was performed using two derivatives of RH4 FP-RMS cells: • (1) “ALK-Luc cells”—RH4 cells expressing a pGreenFire green fluorescent protein (GFP)-luciferase reporter (SEQ ID NO: 1) controlled by the PAX3-FOXO1-dependent intronic ALK super enhancer (for reporting on PAX3-FOXO1 activity) (FIGS. 1 and 2); and • (2) “CMV-Luc cells”—control RH4 cells in which the reporter is transcribed from a constitutively active cytomegalovirus (CMV) promoter. An Example of visualization via the ALK-Luc reporter is depicted in FIG. 3.
The cells were enriched for reporter expression levels and used for assay development. A high throughput screening assay was developed after optimization of cell seeding density, length of incubation of cells prior to and post treatment with test compounds, and effect of passaging among other factors. The screen was designed to identify compounds that suppressed PAX3-FOXO1 activity without disrupting viability (at a short time points) or general transcription. The assay simultaneously monitors the function of the PAX3-FOXO1 super enhancer (also referred to as “ALK super enhancer”), general transcriptional activity as well as cell viability.
The visual summary of the screening strategy is illustrated in FIG. 4. ALK-Luc cells were seeded in both white-walled and white-bottomed 384-well plates (Perkin Elmer, Cat #6007658) for luciferase assays and in clear 384-well plates (Perkin Elmer, Cat #6007688) for viability assay (XTT reduction) by transferring 27 μL of cell suspensions (seeding 3000 cells per well) into each well. The plates were then transferred into an incubator for 18-20 h. The CMV-Luc cells were similarly seeded into white plates and incubated.
A pure compound library of 62,643 compounds consisting of synthetic and natural products described previously (Grohar et al., J Natl. Cancer Inst., 103: 962-978 (2011)) was then used in a high throughput screening campaign to identify inhibitors of PAX3-FOXO1. Stock DMSO Solutions of these compounds were used to prepare 100 μM solutions in growth medium in 384-well plates also containing 16 wells each of a positive control (Actinomycin D, Sigma, Cat #A1410) and negative control (DMSO). Screening compounds along with the positive and negative controls were added to assay plates by transferring 3 μL of the prepared 100 μM dilutions using an automated liquid handler (Agilent, Bravo). Treated plates were incubated for 24 h. At the end of this period, treated plates were allowed to equilibrate to room temperature for 30 minutes. SteadyLite Plus luciferase assay reagent powder (PerkinElmer, Cat #6066759) was reconstituted in its buffer in parallel and was also allowed to equilibrate to room temperature.
After transferring 30 μL of the luciferase assay reagent using a liquid handler, plates were further incubated at room temperature for 10 minutes. Finally, luminescence measurements were carried out using a multi-label microplate reader (BMG, Pherastar FSX) set in luminescence mode. Cell viability was assessed by adding XTT reagent (10 μL per well) in clear plates containing treated ALK-Luc cells. XTT treated plates were read using a plate reader in absorbance mode at 450 nm (PerkinElmer, Envision) after further incubation for 1 hour to allow cells to metabolize XTT to a colored formazan product. Luminescence and XTT absorbance values were normalized to the average of the negative controls on each plate and were calculated as a percentage of these controls. Performance of the screening assay was routinely monitored via calculation of Z-factor (Zhang et al., J. Biomol. Screen., 4: 67-73 (1999)) with Z′ for all plates found to be >0.7.
RH4 ALK-Luc and RH4 CMV-Luc cells were seeded into separate white-walled and bottomed 384-well plates and were incubated and treated with screen hits and epigenome compounds. The highest test concentration of these compounds (10-fold) were prepared from DMSO stock solutions via dilution in medium. […]

SMILES | binding (WaterLOGSY) [1] | binding (CPMG) [2] | Avg Absorbance @ 1 μM, ALK-Luc [3] | Avg Absorbance @ 10 μM, ALK-Luc [3]
O=C(O)CCC(=O)C(=O)O [Compound 2-OG, 2-oxoglutaric acid, reference compound] | did not bind; also recorded: does not bind | did not bind; also recorded: does not bind | – | –
O=C(NNC(=O)c1ccccn1)c1ccccc1 [PFI-65] | – | – | 103.5 | 109.2
NNC(=O)c1cccc(C(=O)NN)n1 [PFI-66] | – | – | 91.6 | 91.3
Cc1cccc(C(=O)NNC(=O)c2cccc(C)c2)c1 [PFI-67] | – | – | 94.6 | 112.8
CC(=O)NNC(=O)c1ccccn1 [PFI-68] | – | – | 95.0 | 98.0
CCC(=O)NNC(=O)c1ccccn1 [PFI-69] | – | – | 104.3 | 94.4
O=CNNC(=O)c1ccccn1 [PFI-70] | – | – | 99.7 | 93.3
NNC(=O)c1ccc(C(=O)NN)nc1 [PFI-71] | – | – | 100.1 | 108.6
O=C(NNC(=O)c1cccc(C(=O)NNC(=O)c2ccc(Cl)c(Cl)c2)n1)c1ccc(Cl)c(Cl)c1 [PFI-72] | – | – | – | 91.1
Cc1cccc(C(=O)NNC(=O)c2ccccc2)c1 [PFI-73] | – | – | 98.3 | 122.8
CCCC(=O)NNC(=O)c1ccccn1 [PFI-74] | – | – | 102.4 | 94.7
Cc1nc(C)c(C(=O)NNC(=O)c2ccccc2)cc1C(=O)NNC(=O)c1ccccc1 [PFI-75] | – | – | 100.2 | 110.5
CC(=O)NNC(=O)c1cnccn1 [PFI-76] | – | – | 105.6 | 100.2
O=CNNC(=O)c1cnccn1 [PFI-77] | – | – | 95.8 | 96.5
Cc1nc(C)c(C(=O)NN)cc1C(=O)NN [PFI-78] | – | – | 100.3 | 95.3
NNC(=O)c1ccc(C(=O)NN)o1 [PFI-79] | – | – | 97.0 | 97.6
CC(=O)NNC(=O)c1ccc2ccccc2n1 [PFI-80] | – | – | 90.1 | 96.6
CCC(CC)C(=O)NNC(=O)c1ccccn1 [PFI-81] | – | – | 97.7 | 89.1
O=C(NNC(=O)c1ccccn1)c1ccccn1 [PFI-82] | – | – | 112.4 | 107.1
O=C(Cc1ccc(Cl)cc1)NNC(=O)c1ccccn1 [PFI-83] | – | – | 97.8 | 32.2
Cc1cc(C)cc(OCC(=O)NNC(=O)c2ccccn2)c1 [PFI-84] | – | – | 99.4 | 56.5
CS(=O)(=O)NCCc1ccc(C(=O)NNC(=O)c2ccccn2)cc1 [PFI-85] | – | – | 99.7 | 100.2
Cc1cc(C)cc(C(=O)NNC(=O)c2ccc(O)cc2)c1 [PFI-86] | – | – | 97.7 | 84.1
COCc1cccc(C(=O)NNC(=O)c2ccccn2)c1 [PFI-87] | – | – | 115.5 | 120.4
Cc1cccc(C(=O)NNC(=O)c2ccccc2)c1 [PFI-88] | – | – | 91.6 | 121.4
CC(C)CC(=O)NNC(=O)c1ccco1 [PFI-89] | – | – | 95.1 | 92.5
